The results in this text go back to US20100126680A1, “Method For Controlling Enzymatic Decomposition Of Peroxide and Products Thereof” (BUCKMAN LABORATORIES INTERNATIONAL, INC., priority 2008, published 2010).

Holding throughout (assay type): biochemical
Test [1] concerns wild catalase in de-inking white water. As to the kind of experiment: Filter paper float test of catalase de-activation using de-inking white water. The protocol:
(§1) A filter paper float test was carried out to study catalase deactivation performance of aldehyde-functional polymers and a conventional catalase inhibitor on bleached paper. In a typical float test, a one-inch square piece of filter paper was saturated with 50% H2O2 solution. With excess H2O2 solution being removed, the treated filter paper was submerged in 200 mL aqueous catalase solution or 200 mL de-inking white water. The catalase solution was prepared by diluting a commercial catalase solution with either distilled water or papermaking white water. Various amounts of the catalase inhibitors being studied were mixed with the catalase solution or de-inking white water for five minutes before the treated filter paper was submerged in the catalase solution or de-inking white paper. Controls also were carried out in which no catalase inhibitor was added to the catalase solution or de-inking paper before the treated filter was submerged therein. The time that was required for the filter paper to rise to the solution surface was recorded and used to determine H2O2 decomposition rate. A longer time for the filter paper to rise to the surface indicated a slower H2O2 decomposition rate.
As an initial observation made with respect to the controls that contained no catalase inhibitor, a significant difference was observed between the papermaking and de-inking sources of white water with respect to wild catalase content. […] The presence of wild catalase in the de-inking white water was confirmed by the float tests. It only took about 40 seconds for the peroxide-treated filter paper to rise to the surface of the de-inking white water that had not been treated with catalase inhibitor (e.g., see Control A, Table 4 below).
Float tests were also carried out with the de-inking white water obtained from a papermaking mill. Various amounts of the catalase inhibitors being studied for this example were mixed with the de-inking white water for five minutes before the treated filter paper was submerged in the de-inking white water. […]

For test [2], the system named is commercial catalase TERMINOX® Ultra 50L. As to the kind of experiment: Filter paper float test of catalase de-activation using distilled water. The settings on record: for Float time: 20 μL catalase/1000 mL distilled water, no-inhibitor float time 75 sec. On the procedure: as §1
Catalase de-activation performance of a glyoxalated polyacrylamide (G-PAM) and glutaraldehyde was tested with the filter paper float test using distilled water. As indicated, in a typical test, a square piece of filter was first saturated with 50% H2O2 solution. Various amounts of the two types of catalase inhibitors being studied in this example were mixed with the catalase solution prepared with distilled water for five minutes before the treated filter paper was submerged in the catalase solution. Once the treated filter paper was submerged in catalase solution, catalase started decomposing H2O2 molecules, releasing O2 gas. The faster the H2O2 decomposition rate, the faster the O2 gas being generated, and the shorter the time required for the filter paper to rise to the solution surface. On the other hand, the presence of catalase inhibition will slow down the H2O2 decomposition rate, resulting in longer periods of time for the filter paper to rise to the surface.
Table 1 presents the results of the float tests conducted with 20 μL commercial catalase TERMINOX® Ultra 50L diluted by 1000 mL distilled water to prepare the catalase solution. As indicated, glutaraldehyde and glyoxalated polyacrylamide were studied as the catalytic inhibitors. Glutaraldehyde was chosen as a control for this example. Large quantities of glutaraldehyde are commercially used as a catalase inhibitor. BUBOND® 387 was the source of the glyoxalated polyacrylamide.

The test system is the same in test [3]. As to the kind of experiment: Filter paper float test of catalase de-activation using papermaking white water. The settings on record: 500 ppm inhibitor. On the procedure: as §1
To test the effect of dissolved and colloidal substances on catalase inhibitors, float tests were also carried out with the white water obtained from a newsprint papermaking mill. […]

Turning to `O=CCCCC=O` [Glutaraldehyde], the “Float time” value in test [1] (Dosage 2000 ppm, de-inking white water pre-treated with 1000 ppm BUSAN® 1078 bactericide for 30 minutes, no-inhibitor Control B 35 sec) worked out at 40 s; in test [1] (Dosage 2000 ppm, de-inking white water, no-inhibitor Control A 39 sec) it was 68 s; in test [1] (Dosage 4000 ppm, de-inking white water pre-treated with 1000 ppm BUSAN® 1078 bactericide for 30 minutes, no-inhibitor Control B 35 sec) it was 37 s; in test [2] (50 ppm inhibitor), 80 s; in test [2] (100 ppm inhibitor) it was 72 s; in test [2] (150 ppm inhibitor), 88 s. For the same molecule, the “Float time” value in test [2] (200 ppm inhibitor) came to 103 s; in test [2] (300 ppm inhibitor), 117 s; in test [2] (500 ppm inhibitor), 128 s; in test [3] (10 μL catalase/1000 mL papermaking white water, no-inhibitor float time 197 sec), 301 s; in test [3] (20 μL catalase/1000 mL papermaking white water, no-inhibitor float time 67 sec) it was 130 s. The “filter paper float time” value in test [2] (below 100 ppm inhibitor, distilled water catalase solution) is given as “around 75 seconds”.
